Laboratory results taken from the supplement of paper PMC11451515.

Columns and labels:
Conditions in all cases: 48 h
NOMO1 [1] = test: AUC of viability dose-response curve (% viability x log10 dose units); higher = less sensitive
Method in brief: (§1)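 Over 48 h at 37°C, leukemia cells in 1536-well plates (500 or 1000 cells/well), adapted to each medium, received library compounds in DMSO at 11 threefold doses from 47 μM to 0.79 nM. CellTiter-Glo One luminescence, normalised per plate to DMSO and cell-free wells, was fitted by a four-parameter log-logistic function of log10 dose. The area under the curve was then integrated by trapezoidal rule, after scaling curves above full viability and removing those that failed quality control.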

P12-Ichikawa [2] = test: as above
Method in brief: as §1

SEM cells [3] = test: as above
Method in brief: as §1

NOMO1 [4] = test: cell viability relative to DMSO control; higher = less cytotoxic
Method in brief: (§2)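 Library compounds in DMSO were pin-dosed into 1536-well plates (5 μl) holding NOMO1 or SEM (500 cells/well) or P12-Ichikawa (1000 cells/well) leukemia cells, across an 11-point threefold series of 47 μM to 0.79 nM. Each cell line had been adapted for at least four passages in each medium. CellTiter-Glo One luminescence was read after 48 h at 37°C. Viability is the per-plate percentage relative to DMSO wells, with cell-free wells as background.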

P12-Ichikawa [5] = test: as above
Method in brief: as §2

SEM cells [6] = test: as above
Method in brief: as §2

CCOC(=O)O[C@]1(C(=O)OCCl)CC[C@H]2[C@@H]3CCC4=CC(=O)C=C[C@]4(C)[C@H]3[C@@H](O)C[C@@]21C
AUC of viability dose-response curve
Conditions	NOMO1 [1]	P12-Ichikawa [2]	SEM cells [3]
HPLM + 10% dialyzed FBS	459	467	460
RPMI 5 mM glucose + 10% FBS	427	461	429
RPMI 5 mM glucose + 10% dialyzed FBS	431	450	430

cell viability [%]
Conditions	NOMO1 [4]	P12-Ichikawa [5]	SEM cells [6]
HPLM + 10% dialyzed FBS, 0.000781 µM	101	97.6	84.2
HPLM + 10% dialyzed FBS, 0.00234 µM	95.9	102	92.5
HPLM + 10% dialyzed FBS, 0.00702 µM	103	99.3	93.3
HPLM + 10% dialyzed FBS, 0.0211 µM	105	107	102
HPLM + 10% dialyzed FBS, 0.0632 µM	103	105	101
HPLM + 10% dialyzed FBS, 0.19 µM	108	118	99.3
HPLM + 10% dialyzed FBS, 0.569 µM	110	101	95.6
HPLM + 10% dialyzed FBS, 1.71 µM	99.3	104	96
HPLM + 10% dialyzed FBS, 5.12 µM	95.3	86.1	102
HPLM + 10% dialyzed FBS, 15.4 µM	84.3	101	88.7
HPLM + 10% dialyzed FBS, 46.1 µM	82	102	100
RPMI 5 mM glucose + 10% FBS, 0.000781 µM	98.4	95.9	82.9
RPMI 5 mM glucose + 10% FBS, 0.00234 µM	88.2	95.8	85.4
RPMI 5 mM glucose + 10% FBS, 0.00702 µM	96.2	95.7	87.9
RPMI 5 mM glucose + 10% FBS, 0.0211 µM	84.2	95	84.6
RPMI 5 mM glucose + 10% FBS, 0.0632 µM	82.2	110	92.7
RPMI 5 mM glucose + 10% FBS, 0.19 µM	94.6	102	87.3
RPMI 5 mM glucose + 10% FBS, 0.569 µM	85.7	111	85.1
RPMI 5 mM glucose + 10% FBS, 1.71 µM	87.5	100	109
RPMI 5 mM glucose + 10% FBS, 5.12 µM	87.1	76	107
RPMI 5 mM glucose + 10% FBS, 15.4 µM	89.3	97.1	96.1
RPMI 5 mM glucose + 10% FBS, 46.1 µM	95	88.5	96.6
RPMI 5 mM glucose + 10% dialyzed FBS, 0.000781 µM	88.1	89	83.5
RPMI 5 mM glucose + 10% dialyzed FBS, 0.00234 µM	95.1	93.3	87.4
RPMI 5 mM glucose + 10% dialyzed FBS, 0.00702 µM	93.2	94.6	93.6
RPMI 5 mM glucose + 10% dialyzed FBS, 0.0211 µM	87.4	98.3	85.7
RPMI 5 mM glucose + 10% dialyzed FBS, 0.0632 µM	91	99.3	85.4
RPMI 5 mM glucose + 10% dialyzed FBS, 0.19 µM	100	91.1	94.8
RPMI 5 mM glucose + 10% dialyzed FBS, 0.569 µM	88.6	98.4	86.1
RPMI 5 mM glucose + 10% dialyzed FBS, 1.71 µM	98.2	102	89.3
RPMI 5 mM glucose + 10% dialyzed FBS, 5.12 µM	75.8	83.4	96.4
RPMI 5 mM glucose + 10% dialyzed FBS, 15.4 µM	80.2	98.5	99.2
RPMI 5 mM glucose + 10% dialyzed FBS, 46.1 µM	93.4	90.3	92
